Test results reported in publication PMC6081452, “Downstream Products are Potent Inhibitors of the Heparan Sulfate 2-O-Sulfotransferase” (Scientific Reports, 2018).
Changes are numbered by the printed parent chain.

Columns and labels:
non-glyc-HS2ST H142R = target: T1, non-glyc-HS2ST H142R (Gallus gallus, UniProt Q76KB1, H142R); test: BLI equilibrium binding, non-glyc-HS2ST H142R; parameters: species or system chicken; details: BLI saturation binding curves, n = 3, ± standard error of fit
T1 construct: made in house; host or cells: E. coli Origami B (DE3)
T1 sequence (Q76KB1 69-356 H142R limits assumed): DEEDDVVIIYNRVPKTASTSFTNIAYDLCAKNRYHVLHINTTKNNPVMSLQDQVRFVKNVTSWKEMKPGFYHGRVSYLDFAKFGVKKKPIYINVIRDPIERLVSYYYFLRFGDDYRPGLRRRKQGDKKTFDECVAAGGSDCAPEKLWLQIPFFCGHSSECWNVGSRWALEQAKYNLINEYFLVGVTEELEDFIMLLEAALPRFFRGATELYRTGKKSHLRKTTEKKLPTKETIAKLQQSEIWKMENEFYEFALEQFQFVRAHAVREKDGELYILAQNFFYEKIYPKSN
Description: (§1) To assess whether the inhibitory compounds interact with the active site, point mutations were introduced in non-glyc-HS2ST (Fig. 4a). Four mutants of the catalytic residue (H142A/E/R/K) were created, along with a mutation of the residue that facilitates 2-O-sulfation of IdoA residues (R189A)[27]. Additionally, a negative control (NC) was generated containing multiple mutations of positively charged residues (R189A, R80E, and R184E) that reduced the net charge of each protein monomer by 5. The extent that the mutations affected affinity provided an indication that the ligand had been bound in the active site (Table 1 and Supplementary Fig. 1). While R189A markedly diminished the affinity for all compounds, the NC mutations reduced affinity to immeasurable levels. Removal of the catalytic side chain (H142A) enhanced the affinity of each compound, compared to the WT, by approximately 2–3-fold. Addition of a positive charge at this location (H142K/R) further enhanced the affinity for each compound, so much so that a KD value could be measured even for 2. The H142E mutation diminished the affinity of 5 by half compared to WT, but its effects were less significant for binding to 3 or 4.
(§2) The chicken HS2ST-Maltose Binding Protein (MBP) fusion protein was expressed and purified according to previous studies. The fusion protein was transformed into E. coli Origami B (DE3) cells, cultured at 37 °C until OD600 reached 0.5, then induced with isopropyl-β-D-thiogalactopyranoside and allowed to grow overnight at 20 °C. Cells were sonicated, followed by a two-step purification procedure. Whole-cell supernatant was passed through an amylose column with Tris buffer (25 mM Tris, 500 mM NaCl, pH 7.5). An elution buffer consisted of Tris Buffer with 40 mM Maltose. The amylose column eluent was concentrated and loaded on a Superdex 200 Increase 10/300 GL with PBS buffer (10 mM sodium phosphate, 150 mM NaCl, pH 7.8) to separate trimeric protein from aggregate and independent MBP (Supplementary Fig. 4). All reported mutations formed homotrimeric complexes according to the SEC profiles, including the negative control (NC = R189A/R80E/R184E). Protein concentration was assessed via UV at 280 nm (MW of trimer ~210 KDa, extinction coefficient ~119,000 M^−1 cm^−1 according to ExPASy ProtParam webtool[56]). The trimeric protein preparation was adjusted to 5% glycerol and stored at −20 °C until use. Additional non-glyc-HS2ST constructs were created with the Q5® Mutagenesis kit (New England Biolabs Inc.; cat. # E0554S) and sequenced at the Georgia Genomics Facility at the University of Georgia.
(§3) The Octet® RED96 system (FortéBio Inc.) was employed to detect the affinity of the enzymes for specific HS targets. […]

non-glyc-HS2ST R189A = target: T2, non-glyc-HS2ST R189A (Gallus gallus, UniProt Q76KB1, R189A); test: BLI equilibrium binding, non-glyc-HS2ST R189A; parameters: species or system chicken; details: BLI saturation binding curves, n = 3, ± standard error of fit; — = response too weak to fit
T2 construct: made in house; host or cells: E. coli Origami B (DE3)
T2 sequence (Q76KB1 69-356 R189A limits assumed): T1 sequence (Q76KB1 69-356 H142R limits assumed) with R74H, R121A
Description: as §1, §2, §3

Kd (non-glyc-HS2ST H142R) | Kd (non-glyc-HS2ST R189A) | Substance
0.013 ± 0.001 µM | > 0.5 µM | GlcNS6S-GlcA-GlcNS6S-GlcA-GlcNS6S-GlcA~ [Compound 5]
0.136 ± 0.02 µM | > 0.5 µM | GlcNS-GlcA-GlcNS-IdoA2S-GlcNS-GlcA~ [Compound 2]
0.01 ± 0.001 µM | 0.063 ± 0.005 µM | GlcNS6S-GlcA-GlcNS3S6S-IdoA2S-GlcNS6S-GlcA~ [Compound 4]
0.012 ± 0.001 µM | 0.448 ± 0.124 µM | GlcNS6S-GlcA-GlcNS6S-IdoA2S-GlcNS6S-GlcA~ [Compound 3]
